Test results reported in patent publication US9233127B2, “Compositions and methods for CXCR4 signaling and umbilical cord blood stem cell engraftment” (University of Virginia Patent Foundation, priority 2012, dated 2016).
“Also recorded” adds a separate entry of the source.

Columns and labels:
UCB CD34+ cells [1] = assay: Transwell chemotaxis of UCB CD34+ cells to SDF-1 (priming); format: cell-based, human
Method: FIG. 11A-B—Effect of SLP and its components on chemotaxis of CD34^+ cells. Panel A: Chemotaxis of BM CD34^+ cells towards medium alone (control), SDF-1 low (10 ng/mL) alone, SLP (combined SLP from three patients), SDF-1 low+SLP, and SDF-1 high (300 ng/mL). Data are pooled from quadruplicate samples from three independent experiments. *p<0.00001. Panel B: Chemotaxis of UCB CD34^+ cells to medium alone (control), SDF-1 low (10 ng/mL) alone and SDF-1 low (10 ng/mL)+uPAR (1 μg/mL) or +ICAM (1 μg/mL) or +VCAM (1 μg/mL) or +FN (2 μg/mL), or +FG (4 μg/mL) or +C3a (1 μg/mL). Data are pooled from quadruplicate samples from three independent experiments. * p<0.00001.
An increased migration of UCB-derived CD34^+ cells, as compared to BM and mPB CD34^+ cells was reported in transwell migration assays was previously reported. However, we noticed large inter-individual differences in the in vitro migratory ability of UCB CD34^+ cells, ranging from 1.1% to 14.3% for spontaneous migration and 3.1% to 62.3% for SDF-1-induced (300 ng/mL) migration. The lower migratory capacity in vitro of UCB-derived CD34^+ cells was not due to lower expression of CXCR4, but likely reflects the decreased migratory behavior of these cells. […] Based on this, we postulate that UCB HSPC responsiveness to an SDF-1 gradient varies with each collected UCB unit and that, in cases when responsiveness is low, UCB HSPCs should be identified and primed before infusion.
Moreover, as SLP contains several components that potentially could prime the responses of CD34^+ cells, (Example 2, FIG. 11, panel B) the most important being PMV and activated complement proteins such as anaphylatoxin C3a, soluble VCAM-1, soluble ICAM-1, uPAR, FG, and FN, we evaluated whether these factors could induce the chemotaxis of HSPCs when used alone. […] We also examined whether FG, FN, soluble VCAM-1, soluble ICAM-1, uPAR, and C3a prime HSPCs in their responses to SDF-1. […] To determine whether this also affects UCB CD34^+ clonogenic progenitors, UCB CD34^+ cells were collected from the lower chambers after the chemotaxis assay and plated in methylcellulose cultures. […] Moreover, a similar effect for the established hematopoietic cell lines Molt 4, Nalm-6, and THP-1 was also found (data not shown).

CXCR4 [2] = assay: FACS analysis of CXCR4 expression on BM or UCB CD34+ cells; format: cell-based, human; set-up: dose or concentration left out as unconfirmed; conditions: 0, 12, and 24 hrs
From the text: (§1) In another set of experiments, we attempted to elucidate the molecular mechanisms by which C3a enhances the responsiveness of hematopoietic cells to an SDF-1 gradient. […] However, we observed that actin polymerization of CD34^+ cells to a low dose of SDF-1 was enhanced in the presence of C3a.

UCB CD34+ cells [3] = assay: Actin polymerization in CD34+ cells; format: cell-based, human; conditions: in the presence of C3a
From the text: Exposure of UCB CD34^+ cells to a low dose of SDF-1 promotes actin polymerization which is enhanced by the presence of C3a.
as §1

[4] = system: human umbilical vein endothelial cells; assay: Adhesion of UCB CD34+ cells to endothelial cells; format: cell-based
UCB and BM CD34+ cells = assay: MMP secretion and trans-Matrigel migration of primed CD34+ cells; format: cell-based, human; conditions: UCB and BM CD34+ cells primed with C3a
CXCR4 [5] = assay: CXCR4 incorporation into membrane lipid rafts of UCB CD34+ HSC; format: cell-based, human; conditions: short-term (15-30 min) exposure to C3a
Method: FIG. 14—Priming effect depends on inclusion of CXCR4 into membrane lipid rafts. […] comprises three rows and three columns of images of micrographs. Lipid raft formation on normal human UCB-derived CD34^+ cells not stimulated (control) or stimulated with C3a or desArgC3a. For visualization of lipid rafts, CD34^+ cells were fixed in 3.7% paraformaldehyde/Ca- and Mg-free PBS for 15 min and permeabilized by Triton X-100 in PBS for 5 min at room temperature (RT). The primary antibodies used for raft analysis are cholera toxin B-subunit conjugated with Fluorescein Isothiocyanate (FITC) (Sigma Aldrich, St. Louis, Mo.) and mouse monoclonal anti-hCXCR4 immunoglobulin (Ig)G (R&D Systems, Minneapolis, Minn.). After rinsing in phosphate-buffered saline (PBS), the sections were incubated with Alexa Fluor 568 goat anti-mouse IgG (Molecular Probes, Eugene, Oreg.) for 45 min.

[6] = system: murine BM-derived Sca-1+ cells; assay: Homing of primed murine Sca-1+ cells into BM of lethally irradiated syngeneic mice; format: in vivo; conditions: Sca-1+ cells preincubated with C3a 30 min, 16 hrs after transplant
From the text: FIG. 16A-B—Panel A: C3a primes homing of murine CFU-GM and CFU-S into BM of lethally irradiated mice. Murine BM-derived Sca-1^+ cells (10^5/mouse) were transplanted into lethally irradiated syngeneic mice. At 16 hrs after transplant, cells were recovered from the femurs of transplanted animals and assayed in secondary cultures for the number of clonogenic CFU-GM (left panel) and, after transplant into secondarily irradiated animals, for the number of day-12 CFU-S (right panel). Data are pooled from three independent experiments using 10 mice each/tested cells (n=30). * p<0.0001. No HSPC cells were recovered from the marrow cavities of control animals (irradiated, not transplanted) Panel B: C3a primes homing of human CB and BM CD34^+ cells into the BM of lethally irradiated NOD/SCID mice. At 16 hrs after transplantation of human CD34^+ cells (10^6/animal), mice were sacrificed and CFU-GM colonies were assayed in methylcellulose cultures. Data are pooled from independent experiments preformed on three different CB- and three different BM samples using 2-4 mice/tested cell sample. p<0.0001.
As final proof of our hypothesis and to test whether the primed cells home better to BM, we primed murine BM-derived Sca-1^+ and human BM- and UCB-derived CD34^+ cells with C3a before their transplantation into lethally irradiated mice. […]

Sca-1+ cells = assay: Hematopoietic recovery of lethally irradiated mice given C3a primed Sca-1+ cells; format: in vivo
From the text: FIG. 6A-B—Sca-1^+ Cells Primed with C3a Engraft Faster in Lethally Irradiated Mice. 6A—left panel; 6B—right panel.

[7] = C3a primed hematopoietic progenitors

Substance: C3a: 77 amino acid residue protein derived from the human complement C3a precursor; SEQ ID NO:1
- SDF-1-mediated transwell cell migration of C3a primed UCB CD34+ HSC (UCB CD34+ cells [1]): enhanced
- responsiveness of UCB cells to SDF-1 gradient (UCB CD34+ cells [1]; UCB-derived CD34+ cells exposed/primed): significantly increase the responsiveness
- chemotactic response of UCB CD34+ cells to SDF-1 (UCB CD34+ cells [1]; added to lower chambers with SDF-1 10 ng/mL, uPAR, ICAM, VCAM, C3a 1 μg/mL, FN 2 μg/mL, FG 4 μg/mL): increased the chemotactic response
- induction of chemotaxis of HSPCs when used alone (UCB CD34+ cells [1]; without SDF-1): no evidence that they did
- CXCR4 expression after C3a exposure (CXCR4 [2]): not enhanced; also recorded: negative results
- actin polymerization of CD34+ cells to a low dose of SDF-1 (UCB CD34+ cells [3]): enhanced
- adhesion of UCB CD34+ cells to human umbilical vein endothelial cells ([4]; C3a): increases adhesion
- adhesion of CD34+ cells ([4]; combination of C3a priming and SDF-1): only to a slight increase
- MMP-9 and MMP-2 secretion (UCB and BM CD34+ cells): significantly increase
- trans-Matrigel migration toward a low dose of SDF-1 (UCB and BM CD34+ cells): significantly increase
- CXCR4 incorporation into membrane lipid rafts (CXCR4 [5]): enhances CXCR4 incorporation
- homing of murine CFU-GM and CFU-S into BM [6]: home more efficiently; also recorded: homed better; also recorded: primes homing
- faster rate of leukocyte recovery relative to untreated mice (Sca-1+ cells; [7]): 5 days
- platelet counts (Sca-1+ cells; [7]): benefit in platelet counts
- infusional toxicity and coagulopathy (Sca-1+ cells; murine studies): neither infusional toxicity nor evidence of coagulopathy was observed
